Test [1] is described as follows: inhibitors of PGC1a acetylation in cells, dose response, cell-based, cherry-picked samples (AID 720514).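 Note: potency may reflect raised or lowered acetylation signal.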 The class given is functional.
Test [2] has as its target T1, Calpain-2 catalytic subunit (Sus scrofa, UniProt P43367).
T1 sequence (P43367 whole entry): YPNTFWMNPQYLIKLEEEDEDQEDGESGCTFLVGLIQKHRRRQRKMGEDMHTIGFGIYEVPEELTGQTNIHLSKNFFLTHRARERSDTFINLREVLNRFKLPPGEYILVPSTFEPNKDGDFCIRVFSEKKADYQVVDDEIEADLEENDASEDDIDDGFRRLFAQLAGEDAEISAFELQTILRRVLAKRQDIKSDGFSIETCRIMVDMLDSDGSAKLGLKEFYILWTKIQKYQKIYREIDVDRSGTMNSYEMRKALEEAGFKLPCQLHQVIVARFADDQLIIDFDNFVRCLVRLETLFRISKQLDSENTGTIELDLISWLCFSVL
The test is described as follows: pig calpain II inhibitor potency, dose response, biochemical, fluorogenic peptide substrate (AID 1420). In kind it is functional.

Test [3] is described as follows: inhibitors of HIV Env-driven cell fusion, dose response, cherry-pick (AID 652057). In kind it is functional, cell-based.
The nature of test [4]: off-target signal loss in HeLa-CEM21 co-culture – HeLa F-luc CTL cells, cherry-picked, counter-screen for HIV-1 Env fusion inhibitor project, dose response (AID 652040).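 Note: potency for signal decrease marking cytotoxic or nonspecific inhibition.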 In kind it is functional, cell-based.
A short description of test [5]: ZM109 Env clade C HIV-1 fusion inhibitors, dose response, HeLa effector, CEM target cells, luciferase, cherry-pick (AID 652058). The class given is functional, cell-based.
The nature of test [6]: Luminescence Cell-Based Dose Response HTS to Identify Activators of Luciferase Translation or Activity in H4 […] Cells. [Related pubchem assays: 1829 (Project Summary), 1814 (Primary HTS)]. The class given is functional.
For a further test, the system named is H4. In words: Luminescence Cell-Based Dose Response HTS to Identify Activators of 5'UTR Stem-Loop Driven Prion Protein mRNA Translation in H4 Neuroglioblastoma Cells. [Related pubchem assays: 1829 (Project Summary), 1814 (Primary HTS)]. The class given is functional. The following applies: Homo sapiens.
Another test deals with Paired box protein Pax-8 (Homo sapiens, UniProt Q06710). In words: inhibitors of PAX8-driven TPO luciferase reporter, dose response, RMG-I cells, cherry-pick (AID 687027).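 Note: luciferase reporter driven by Pax8 target thyroperoxidase promoter measured by SteadyGlo luminescence.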 In kind it is functional, cell-based.
Sequence of Paired box protein Pax-8 (Q06710 whole entry): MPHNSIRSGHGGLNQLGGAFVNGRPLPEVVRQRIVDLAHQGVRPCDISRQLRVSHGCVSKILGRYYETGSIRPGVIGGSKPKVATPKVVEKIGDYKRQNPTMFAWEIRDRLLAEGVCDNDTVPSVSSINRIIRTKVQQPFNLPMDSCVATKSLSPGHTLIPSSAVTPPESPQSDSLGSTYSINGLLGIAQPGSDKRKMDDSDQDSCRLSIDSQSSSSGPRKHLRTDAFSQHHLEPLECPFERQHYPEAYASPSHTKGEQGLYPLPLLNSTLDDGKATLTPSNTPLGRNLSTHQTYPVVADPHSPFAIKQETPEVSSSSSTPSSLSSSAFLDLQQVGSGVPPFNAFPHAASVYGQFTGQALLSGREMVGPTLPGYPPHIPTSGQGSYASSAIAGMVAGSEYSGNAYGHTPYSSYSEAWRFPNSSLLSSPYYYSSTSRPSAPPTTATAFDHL
A short description of test [7]: Luminescence Cell-Based Dose Confirmation HTS to Identify Activators of 5'UTR Stem-Loop Driven Alpha-Synuclein mRNA Translation in H4 Neuroglioblastoma Cells. [Related pubchem assays: 1829 (Project Summary), 1814 (Primary HTS)]. The class given is functional.
The nature of test [8]: cytotoxicity toward NIH3T3 fibroblasts, dose response, counter-screen, cell-based, ATP luminescence, mouse fibroblasts (AID 2010).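 Note: cells exposed to compound for about 90 hours before reading.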 The class given is functional.
The nature of test [9]: inhibitors of intracellular T. cruzi replication, confirmation, NIH3T3 host cells, beta-gal luminescence (AID 2044).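 Note: intracellular parasites grown in NIH/3T3 mouse fibroblasts as host cells; luminescent beta-galactosidase reporter signal from transgenic T. cruzi replicating inside host cells; inhibitors lower the luminescence signal.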 In kind it is functional, cell-based.
For another test, the target named is T2, Estrogen receptor (Homo sapiens, UniProt P03372).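 Note: potency for inhibiting coactivator peptide recruitment to the receptor.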
T2 sequence (P03372 whole entry): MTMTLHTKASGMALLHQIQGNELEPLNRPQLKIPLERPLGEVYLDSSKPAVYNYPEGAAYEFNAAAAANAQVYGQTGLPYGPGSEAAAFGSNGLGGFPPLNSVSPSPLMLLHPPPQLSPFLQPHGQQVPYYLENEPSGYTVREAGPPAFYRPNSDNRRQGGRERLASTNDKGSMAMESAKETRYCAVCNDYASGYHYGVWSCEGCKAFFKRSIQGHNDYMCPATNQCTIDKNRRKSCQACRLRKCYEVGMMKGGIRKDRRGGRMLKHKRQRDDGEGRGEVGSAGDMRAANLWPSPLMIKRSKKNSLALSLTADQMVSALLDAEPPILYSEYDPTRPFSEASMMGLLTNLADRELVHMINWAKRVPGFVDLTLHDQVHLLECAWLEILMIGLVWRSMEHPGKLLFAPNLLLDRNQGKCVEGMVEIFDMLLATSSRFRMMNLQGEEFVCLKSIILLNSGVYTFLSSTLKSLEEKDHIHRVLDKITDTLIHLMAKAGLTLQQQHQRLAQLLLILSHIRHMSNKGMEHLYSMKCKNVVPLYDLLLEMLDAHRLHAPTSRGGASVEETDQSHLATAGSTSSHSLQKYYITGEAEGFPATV

The next test has as its target Cytochrome P450 2C19 (Homo sapiens, UniProt P33261). In words: Cytochrome panel assay with activity outcomes. Panel member name: p450-cyp2c19 Compounds with AC50 equal or less than 10 uM are considered active. In kind it is functional. Particulars: read-out: AC50.
Test [10] concerns the target T3, Long-chain-fatty-acid--AMP ligase FadD28 (Mycobacterium tuberculosis, UniProt P9WQ59).
T3 sequence (P9WQ59 whole entry): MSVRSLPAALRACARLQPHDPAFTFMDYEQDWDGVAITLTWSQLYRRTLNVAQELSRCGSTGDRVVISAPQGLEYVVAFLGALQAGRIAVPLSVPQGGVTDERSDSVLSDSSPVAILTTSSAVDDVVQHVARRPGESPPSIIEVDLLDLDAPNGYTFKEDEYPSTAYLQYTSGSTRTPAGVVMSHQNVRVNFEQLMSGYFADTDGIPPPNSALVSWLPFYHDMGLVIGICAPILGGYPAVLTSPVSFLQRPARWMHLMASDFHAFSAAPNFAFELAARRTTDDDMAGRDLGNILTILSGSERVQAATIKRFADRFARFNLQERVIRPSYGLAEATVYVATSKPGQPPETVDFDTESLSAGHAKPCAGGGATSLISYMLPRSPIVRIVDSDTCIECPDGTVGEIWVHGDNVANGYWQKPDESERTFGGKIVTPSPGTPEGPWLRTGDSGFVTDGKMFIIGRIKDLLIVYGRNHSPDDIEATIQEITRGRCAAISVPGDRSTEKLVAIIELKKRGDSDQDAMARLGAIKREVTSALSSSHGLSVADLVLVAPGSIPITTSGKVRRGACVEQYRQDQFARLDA
In words: Fluorescence polarization aasay to screen for inhibitors that compete for the binding of FadD28 to a bisubstrate Measured in Biochemical System Using Plate Reader - 2147-01_Inhibitor_Dose_CherryPick_Activity. In kind it is functional, Mycobacterium tuberculosis H37Rv.

Test [11] has as its target Peroxisome proliferator-activated receptor gamma/Nuclear receptor coactivator 2 (Homo sapiens, UniProt P37231). The class given is functional.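 Note: agonist potency for raising coactivator recruitment to the receptor.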
Test [12] concerns the target Peroxisome proliferator-activated receptor gamma/Nuclear receptor coactivator 3 (Homo sapiens, UniProt P37231). In kind it is functional.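 Note: agonist potency for raising coactivator recruitment to the receptor.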
Test [13] concerns the target Peroxisome proliferator-activated receptor gamma/Nuclear receptor coactivator 1 (Homo sapiens, UniProt P37231). In kind it is functional.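 Note: agonist potency as compounds enhance coactivator SRC-1 recruitment to PPARgamma.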
A further test concerns the target T4, Protein Tat (Human immunodeficiency virus type 1 group M subtype B (isolate HXB2)(HIV-1), UniProt P04608).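 Note: tat binding to TAR RNA read out by fluorescence polarization.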
T4 sequence (P04608 whole entry): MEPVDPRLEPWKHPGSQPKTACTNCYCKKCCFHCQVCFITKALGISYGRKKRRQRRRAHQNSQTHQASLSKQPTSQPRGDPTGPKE
In kind it is functional.

For test [14], the target named is T5, Heat shock factor protein 1 (Mus musculus, UniProt P38532).
T5 sequence (P38532 whole entry): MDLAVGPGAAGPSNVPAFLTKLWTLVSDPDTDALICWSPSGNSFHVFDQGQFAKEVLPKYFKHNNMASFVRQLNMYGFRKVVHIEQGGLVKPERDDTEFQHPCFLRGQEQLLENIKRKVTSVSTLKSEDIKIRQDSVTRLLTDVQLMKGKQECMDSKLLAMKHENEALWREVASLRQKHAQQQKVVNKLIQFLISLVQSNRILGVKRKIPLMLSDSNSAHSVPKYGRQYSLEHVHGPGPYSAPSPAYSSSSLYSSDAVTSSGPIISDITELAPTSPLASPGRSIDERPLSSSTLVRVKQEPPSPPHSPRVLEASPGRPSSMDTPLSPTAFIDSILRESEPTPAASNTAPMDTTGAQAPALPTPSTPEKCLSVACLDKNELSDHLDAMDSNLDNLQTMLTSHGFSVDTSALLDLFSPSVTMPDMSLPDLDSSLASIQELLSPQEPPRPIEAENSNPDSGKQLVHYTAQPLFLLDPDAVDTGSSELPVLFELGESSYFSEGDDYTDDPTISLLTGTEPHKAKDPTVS
The test is described as follows: inhibition of MG132-induced HSE-luciferase signal, confirmation, cell-based, NIH3T3, luminescence, dose retest (AID 2382).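 Note: NIH3T3 fibroblasts with HSF1-driven luciferase reporter stressed by proteasome inhibitor MG132; luminescence from HSF1-driven luciferase expression after 8 hours of MG132 stress.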 In kind it is functional.

Test [15] in a line: HepG2 cell cytotoxicity, dose response, cytotoxicity control for Shn3 inhibitor project, CellTiter-Glo, cherry-picked (AID 624134). The class given is functional, cell-based.
Test [16] in a line: Shn3 3'UTR reporter inhibitors, dose response, cell-based, Clone20 osteoblasts, firefly luciferase, cherry-picked (AID 624132).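 Note: firefly luciferase luminescence from reporter carrying the Shn3 3'UTR in osteoblasts.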 In kind it is functional.
The target in test [17] is T5, Heat shock factor protein 1. The test is described as follows: HSF1 potentiators in luciferase reporter cells, confirmation, cell-based, NIH3T3, luminescence, dose retest (AID 435004).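 Note: stress induced by proteasome inhibitor MG132 added 30 min after compound; luciferase reporter driven by HSF1 response element in NIH3T3 cells; actives raise luminescence as potentiators of the MG132 stress response.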 In kind it is functional.
Test [18] is described as follows: control 3'UTR Renilla luciferase suppression, dose response, counter-screen for Shn3 inhibitor project, cell-based, Clone20-Shn3RL, cherry-picked (AID 624133). In kind it is functional.
A further test concerns the target Cytochrome P450 2C9 (Homo sapiens, UniProt P11712).
Another test deals with Large T antigen (Simian virus 40, UniProt P03070). The class given is functional, Betapolyomavirus macacae.
A short description of test [19]: A549 cell cytotoxicity, dose response, cytotoxicity control, plate reader, cherry-pick, antagonist series (AID 743412). In kind it is functional, cell-based.

Consider 18 molecules from ChEMBL document CHEMBL1201862, “PubChem BioAssay data set” (2004).

Activity calls are given as the source filed them.

Sequence of Peroxisome proliferator-activated receptor gamma/Nuclear receptor coactivator 1 (P37231 whole entry): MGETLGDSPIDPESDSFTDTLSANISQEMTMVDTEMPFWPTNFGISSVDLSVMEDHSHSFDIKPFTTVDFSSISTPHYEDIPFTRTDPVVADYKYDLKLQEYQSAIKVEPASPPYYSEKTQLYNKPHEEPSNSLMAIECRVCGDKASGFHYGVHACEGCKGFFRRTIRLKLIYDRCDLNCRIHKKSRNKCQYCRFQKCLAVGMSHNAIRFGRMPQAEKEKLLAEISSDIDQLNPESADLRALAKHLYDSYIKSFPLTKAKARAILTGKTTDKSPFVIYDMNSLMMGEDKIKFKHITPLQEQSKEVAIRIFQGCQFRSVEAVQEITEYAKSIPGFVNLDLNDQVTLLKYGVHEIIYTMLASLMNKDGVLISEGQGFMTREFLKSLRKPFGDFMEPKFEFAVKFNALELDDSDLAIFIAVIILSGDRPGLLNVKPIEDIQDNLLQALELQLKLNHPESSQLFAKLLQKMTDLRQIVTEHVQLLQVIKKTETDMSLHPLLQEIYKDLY
Sequence of Peroxisome proliferator-activated receptor gamma/Nuclear receptor coactivator 1 (Q15788 whole entry, further chain): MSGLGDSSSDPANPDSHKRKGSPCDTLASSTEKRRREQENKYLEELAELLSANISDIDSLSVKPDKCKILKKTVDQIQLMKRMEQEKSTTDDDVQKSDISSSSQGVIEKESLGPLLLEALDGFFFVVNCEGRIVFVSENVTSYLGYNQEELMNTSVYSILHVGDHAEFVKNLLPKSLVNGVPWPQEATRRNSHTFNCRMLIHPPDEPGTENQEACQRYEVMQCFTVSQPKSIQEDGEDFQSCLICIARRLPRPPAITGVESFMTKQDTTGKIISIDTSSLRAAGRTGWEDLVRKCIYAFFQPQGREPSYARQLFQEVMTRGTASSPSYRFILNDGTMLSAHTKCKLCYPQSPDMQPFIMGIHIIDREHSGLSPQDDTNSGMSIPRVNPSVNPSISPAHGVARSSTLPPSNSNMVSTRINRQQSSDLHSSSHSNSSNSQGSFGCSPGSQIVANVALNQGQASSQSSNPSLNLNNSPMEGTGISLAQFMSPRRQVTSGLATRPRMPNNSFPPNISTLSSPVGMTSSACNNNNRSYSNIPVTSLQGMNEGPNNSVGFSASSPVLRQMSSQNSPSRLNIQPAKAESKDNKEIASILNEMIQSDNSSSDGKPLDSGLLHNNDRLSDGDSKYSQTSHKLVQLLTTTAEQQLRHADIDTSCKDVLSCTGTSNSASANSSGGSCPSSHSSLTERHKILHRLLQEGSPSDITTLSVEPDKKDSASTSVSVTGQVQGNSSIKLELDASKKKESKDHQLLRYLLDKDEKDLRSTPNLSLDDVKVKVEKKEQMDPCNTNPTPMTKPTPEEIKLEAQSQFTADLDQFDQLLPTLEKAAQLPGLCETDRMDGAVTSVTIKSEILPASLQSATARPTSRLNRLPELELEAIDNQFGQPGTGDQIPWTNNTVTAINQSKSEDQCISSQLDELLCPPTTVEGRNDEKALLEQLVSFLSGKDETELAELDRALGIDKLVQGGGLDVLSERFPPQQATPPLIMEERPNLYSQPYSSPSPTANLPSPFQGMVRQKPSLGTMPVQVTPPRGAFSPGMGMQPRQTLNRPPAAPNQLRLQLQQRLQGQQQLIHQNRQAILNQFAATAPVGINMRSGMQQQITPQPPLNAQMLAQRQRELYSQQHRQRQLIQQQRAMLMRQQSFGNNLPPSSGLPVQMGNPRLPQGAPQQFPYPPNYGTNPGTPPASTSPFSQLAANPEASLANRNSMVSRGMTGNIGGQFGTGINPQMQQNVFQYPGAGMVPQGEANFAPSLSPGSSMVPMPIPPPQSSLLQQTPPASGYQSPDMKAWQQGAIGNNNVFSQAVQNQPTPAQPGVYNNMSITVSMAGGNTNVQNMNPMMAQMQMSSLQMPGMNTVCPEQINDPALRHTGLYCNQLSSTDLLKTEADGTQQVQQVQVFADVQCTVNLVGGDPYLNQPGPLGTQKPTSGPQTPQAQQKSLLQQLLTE
Sequence of Peroxisome proliferator-activated receptor gamma/Nuclear receptor coactivator 3 (P37231 whole entry): as the sequence (P37231 whole entry) above
Sequence of Peroxisome proliferator-activated receptor gamma/Nuclear receptor coactivator 3 (Q9Y6Q9 whole entry, further chain): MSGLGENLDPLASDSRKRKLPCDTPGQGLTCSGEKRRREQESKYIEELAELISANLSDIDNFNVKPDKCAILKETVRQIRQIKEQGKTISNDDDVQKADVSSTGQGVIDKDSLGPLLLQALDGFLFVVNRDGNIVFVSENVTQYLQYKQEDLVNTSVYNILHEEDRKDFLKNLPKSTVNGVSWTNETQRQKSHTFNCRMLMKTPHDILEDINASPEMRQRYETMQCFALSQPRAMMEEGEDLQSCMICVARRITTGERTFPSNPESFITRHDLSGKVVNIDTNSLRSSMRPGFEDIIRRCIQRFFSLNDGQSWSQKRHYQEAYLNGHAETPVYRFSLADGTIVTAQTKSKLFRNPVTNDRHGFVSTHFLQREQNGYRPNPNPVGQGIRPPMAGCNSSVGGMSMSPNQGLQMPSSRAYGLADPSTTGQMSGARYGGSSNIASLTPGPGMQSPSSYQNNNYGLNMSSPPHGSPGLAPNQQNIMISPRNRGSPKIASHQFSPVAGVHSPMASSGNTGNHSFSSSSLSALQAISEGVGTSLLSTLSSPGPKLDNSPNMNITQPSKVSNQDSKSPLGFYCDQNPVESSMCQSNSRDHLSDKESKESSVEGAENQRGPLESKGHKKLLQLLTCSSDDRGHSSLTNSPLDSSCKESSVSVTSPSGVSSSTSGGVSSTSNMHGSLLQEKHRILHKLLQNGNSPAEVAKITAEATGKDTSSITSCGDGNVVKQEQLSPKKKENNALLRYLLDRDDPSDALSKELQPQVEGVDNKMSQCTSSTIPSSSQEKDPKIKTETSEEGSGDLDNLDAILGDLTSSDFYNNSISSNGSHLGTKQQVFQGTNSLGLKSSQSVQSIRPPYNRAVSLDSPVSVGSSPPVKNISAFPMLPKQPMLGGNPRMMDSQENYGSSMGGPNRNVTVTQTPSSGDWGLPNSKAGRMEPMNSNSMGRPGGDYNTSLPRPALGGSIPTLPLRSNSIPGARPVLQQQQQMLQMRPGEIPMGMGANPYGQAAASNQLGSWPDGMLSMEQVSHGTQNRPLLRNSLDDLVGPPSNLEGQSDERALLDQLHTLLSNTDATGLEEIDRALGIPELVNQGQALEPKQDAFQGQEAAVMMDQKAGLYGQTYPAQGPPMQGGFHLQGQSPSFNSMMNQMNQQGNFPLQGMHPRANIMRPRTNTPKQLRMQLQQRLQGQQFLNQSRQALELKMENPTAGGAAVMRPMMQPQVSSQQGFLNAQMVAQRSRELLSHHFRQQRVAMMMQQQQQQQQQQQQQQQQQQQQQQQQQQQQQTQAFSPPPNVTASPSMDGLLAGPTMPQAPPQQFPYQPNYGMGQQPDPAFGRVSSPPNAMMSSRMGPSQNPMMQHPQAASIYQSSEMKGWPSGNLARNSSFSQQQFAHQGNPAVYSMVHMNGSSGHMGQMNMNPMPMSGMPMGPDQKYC
Sequence of Cytochrome P450 2C19 (P33261 whole entry): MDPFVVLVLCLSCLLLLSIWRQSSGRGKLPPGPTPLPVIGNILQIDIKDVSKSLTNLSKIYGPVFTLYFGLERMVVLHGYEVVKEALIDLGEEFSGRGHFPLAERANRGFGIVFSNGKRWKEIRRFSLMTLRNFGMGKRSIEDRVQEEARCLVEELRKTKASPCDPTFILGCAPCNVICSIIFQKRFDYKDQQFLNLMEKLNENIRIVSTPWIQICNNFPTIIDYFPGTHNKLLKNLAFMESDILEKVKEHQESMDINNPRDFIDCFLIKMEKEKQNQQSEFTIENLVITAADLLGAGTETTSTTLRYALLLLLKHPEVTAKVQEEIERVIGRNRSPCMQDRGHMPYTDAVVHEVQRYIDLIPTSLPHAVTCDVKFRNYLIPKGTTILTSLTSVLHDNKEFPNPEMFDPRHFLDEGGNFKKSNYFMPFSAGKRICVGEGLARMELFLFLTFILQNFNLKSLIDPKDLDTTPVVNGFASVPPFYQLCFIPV

With `O=C(COn1nnc2ccc(Cl)cc21)NC12CC3CC(CC(C3)C1)C2`, in test [1], the AC50 is 31.5 µM (active). In [2], the IC50 was > 50 µM (not active).
On to `CCOC(=O)c1ccc(NC2c3ncccc3C(=O)N2Cc2ccc(F)cc2)cc1` (stereo not drawn), for which the AC50 in [3] is 3.06 µM (active); in test [4], 2.84 µM (active); in test [5], 0.521 µM (active).
For `N#CC1(NC(=O)Cn2ncc(Cl)c(Cl)c2=O)CCCCC1`, the EC50 is > 60 µM (not active) in test [6]; > 120 µM (not active) with H4; > 120 µM (not active) in test [7]; 3.27 µM (active) in test [8]; 2.22 µM (active) in [9]. In addition, the AC50 was 10.8 µM (active) in test [1] and 3.01 µM (active) at Paired box protein Pax-8.
For the molecule `Cc1cc(C)c(NC(=O)CSc2nc3ccc(NC(=O)CSc4nnnn4Cc4ccccc4)cc3s2)c(C)c1`, on Estrogen receptor, the IC50 is reported as > 50 µM (not active).
As to `Cc1cccc(NC(=O)Cn2c(=O)n3nc(CCn4nc(C)cc4C)nc3c3ccccc32)c1`, the AC50 on Cytochrome P450 2C19 was 0.0355 µM (inconclusive); in [10], 44.4 µM (active).
`CCOC(=O)CCC(=O)Nc1ccccc1C(N)=O`: on Estrogen receptor, the 50% inhibitory concentration (IC50) is on record as > 50 µM (not active).
Turning to `COc1ccc(-c2c(C#N)c(C)nc3c2C(=O)c2ccccc2-3)cc1`, the EC50 was 32.6 µM (not active) in test [11], 48.3 µM (not active) in [12] and 55.3 µM (not active) in test [13].
In the case of `N#Cc1c(N)nc(SCC(=O)NC2CCCCC2)c(C#N)c1-c1ccc(Cl)cc1`, the EC50 is reported as 21.9 µM (not active) in [11], 37.1 µM (not active) in test [12] and 34.6 µM (not active) in test [13].
On the same counts, the results for `Cc1ccc(CNC(=O)COc2ccc(C(=O)c3ccc(F)cc3)cc2)cc1` are > 79.4 µM (not active), > 79.4 µM (not active) and > 79.4 µM (not active).
Turning to `COc1ccccc1C(=O)Nc1nc(-c2cccs2)c(NC(C)=O)s1`, the IC50 on Estrogen receptor was 19 µM (active).
As for `CCOC(=O)/C=C1\SCC(=O)N1CC(=O)NC(C)c1ccc(F)cc1` (stereo not drawn), on Protein Tat, the IC50 was > 100 µM (active).
In the case of `Fc1ccc(-c2nnc(-n3nnc4ccccc43)c3ccccc23)cc1`, the IC50 at Estrogen receptor is 26.3 µM (active).
Consider `Nc1nc(-c2cccs2)c(-c2cccs2)s1`, for which, in test [10], the AC50 is > 100 µM (inactive).
For the molecule `N#Cc1c(NC(=O)CSc2ncccn2)oc(-c2ccccc2)c1-c1ccccc1`, the EC50 in [14] is 9.25 µM (active). For the same molecule, the IC50 on Estrogen receptor is 9.58 µM (active).
As for `Fc1ccc(/C=C2\CCCC3=C2Nc2ncnn2C3c2ccc(F)cc2)cc1` (stereo not drawn), the AC50 is 37.9 µM (active) in [15], 8.47 µM (active) in test [16], 9.46 µM (active) in test [1] and 11.3 µM (active) in test [18]. For the same molecule, the EC50 in test [17] was 20.7 µM (active).
As for `Cc1nn(-c2ccc(Cl)cc2)c2sc(C(=O)c3c(N)n(C)c(=O)n(C)c3=O)cc12`, the AC50 on Cytochrome P450 2C9 is 25.1 µM (inconclusive). For the same molecule, the EC50 in test [11] is on record as 18 µM (not active); in test [12] it was 33.3 µM (not active); in test [13], 18.4 µM (not active).
As to `CCC(C)(C)n1nnnc1C(c1ccc2ncccc2c1)N1CCN(c2ccc(O)cc2)CC1` (stereo not drawn), the IC50 is 34.6 µM (active) on Large T antigen and > 100 µM (active) on Protein Tat.
`CCC(=O)N(C)C[C@H]1Oc2cc(C#CCC(C)C)ccc2S(=O)(=O)N([C@H](C)CO)C[C@@H]1C`: the AC50 in test [19] is 32.1 µM (active).
